# According to article PMC6199744, “Development of Chemical Proteomics for the Folateome and Analysis of the Kinetoplastid Folateome” (ACS Infectious Diseases, 2018):
# Like-named read-outs stand apart in the source and are kept apart here.
# Experiments:
# Assay type in all cases: binding
# [1] = biological target: T1, HeLa cell extract proteins (Homo sapiens, UniProt Q09161)
# T1 construct: endogenous in cells; host or cells: HeLa cell extract
# T1 sequence (Q09161 1-790): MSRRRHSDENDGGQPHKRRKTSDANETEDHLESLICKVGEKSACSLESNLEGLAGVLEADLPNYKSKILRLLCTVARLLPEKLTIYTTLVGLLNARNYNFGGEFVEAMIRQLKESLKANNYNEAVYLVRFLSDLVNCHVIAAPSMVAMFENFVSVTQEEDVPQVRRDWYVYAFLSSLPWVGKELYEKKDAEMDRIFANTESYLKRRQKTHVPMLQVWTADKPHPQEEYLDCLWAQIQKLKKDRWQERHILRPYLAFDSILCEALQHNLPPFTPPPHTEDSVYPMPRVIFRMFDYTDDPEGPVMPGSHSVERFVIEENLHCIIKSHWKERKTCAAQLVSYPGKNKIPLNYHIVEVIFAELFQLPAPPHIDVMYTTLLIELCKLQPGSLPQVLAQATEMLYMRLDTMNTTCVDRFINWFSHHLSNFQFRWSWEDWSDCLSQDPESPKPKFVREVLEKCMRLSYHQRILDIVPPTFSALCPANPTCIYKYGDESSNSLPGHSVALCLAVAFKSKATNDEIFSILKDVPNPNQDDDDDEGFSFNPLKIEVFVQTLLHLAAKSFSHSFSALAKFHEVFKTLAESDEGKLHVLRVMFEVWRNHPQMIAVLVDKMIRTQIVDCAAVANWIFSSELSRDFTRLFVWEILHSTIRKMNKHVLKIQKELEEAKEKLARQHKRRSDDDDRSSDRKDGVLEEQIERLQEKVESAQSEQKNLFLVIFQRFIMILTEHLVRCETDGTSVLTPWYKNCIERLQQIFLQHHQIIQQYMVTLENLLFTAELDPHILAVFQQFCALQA
# [2] = biological target: T2, HeLa cell extract proteins (Homo sapiens, UniProt Q13155)
# T2 construct: endogenous in cells; host or cells: HeLa cell extract
# T2 sequence (Q13155 1-320): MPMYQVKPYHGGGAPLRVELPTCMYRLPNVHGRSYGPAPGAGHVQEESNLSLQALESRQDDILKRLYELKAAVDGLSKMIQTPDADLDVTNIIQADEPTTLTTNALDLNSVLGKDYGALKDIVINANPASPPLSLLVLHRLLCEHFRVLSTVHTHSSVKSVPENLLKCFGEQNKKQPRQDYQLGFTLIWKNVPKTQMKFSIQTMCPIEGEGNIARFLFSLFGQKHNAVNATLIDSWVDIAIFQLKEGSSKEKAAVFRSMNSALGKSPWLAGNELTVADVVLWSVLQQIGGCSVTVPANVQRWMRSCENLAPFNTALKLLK
# [3] = biological target: T3, HeLa cell extract proteins (Homo sapiens, UniProt Q9NU22)
# T3 construct: endogenous in cells; host or cells: HeLa cell extract
# [4] = biological target: T4, HeLa cell extract proteins (Homo sapiens, UniProt P06576)
# T4 construct: endogenous in cells; host or cells: HeLa cell extract
# T4 sequence (P06576 48-529): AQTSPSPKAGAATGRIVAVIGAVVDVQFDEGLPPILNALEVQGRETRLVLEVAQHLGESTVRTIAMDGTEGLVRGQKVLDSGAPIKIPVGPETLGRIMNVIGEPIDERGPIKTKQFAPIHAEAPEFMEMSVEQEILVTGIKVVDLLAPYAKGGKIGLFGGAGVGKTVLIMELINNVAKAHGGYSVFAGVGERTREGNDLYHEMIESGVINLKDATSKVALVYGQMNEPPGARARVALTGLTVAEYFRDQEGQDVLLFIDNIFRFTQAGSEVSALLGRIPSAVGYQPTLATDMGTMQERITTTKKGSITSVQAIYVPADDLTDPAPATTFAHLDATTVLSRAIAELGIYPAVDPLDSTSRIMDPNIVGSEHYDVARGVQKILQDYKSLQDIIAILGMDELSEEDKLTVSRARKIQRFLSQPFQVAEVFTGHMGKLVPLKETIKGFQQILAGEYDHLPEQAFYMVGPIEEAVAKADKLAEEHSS
# [5] = biological target: T5, HeLa cell extract proteins (Homo sapiens, UniProt P31327)
# T5 construct: endogenous in cells; host or cells: HeLa cell extract
# T5 sequence (P31327 39-1500): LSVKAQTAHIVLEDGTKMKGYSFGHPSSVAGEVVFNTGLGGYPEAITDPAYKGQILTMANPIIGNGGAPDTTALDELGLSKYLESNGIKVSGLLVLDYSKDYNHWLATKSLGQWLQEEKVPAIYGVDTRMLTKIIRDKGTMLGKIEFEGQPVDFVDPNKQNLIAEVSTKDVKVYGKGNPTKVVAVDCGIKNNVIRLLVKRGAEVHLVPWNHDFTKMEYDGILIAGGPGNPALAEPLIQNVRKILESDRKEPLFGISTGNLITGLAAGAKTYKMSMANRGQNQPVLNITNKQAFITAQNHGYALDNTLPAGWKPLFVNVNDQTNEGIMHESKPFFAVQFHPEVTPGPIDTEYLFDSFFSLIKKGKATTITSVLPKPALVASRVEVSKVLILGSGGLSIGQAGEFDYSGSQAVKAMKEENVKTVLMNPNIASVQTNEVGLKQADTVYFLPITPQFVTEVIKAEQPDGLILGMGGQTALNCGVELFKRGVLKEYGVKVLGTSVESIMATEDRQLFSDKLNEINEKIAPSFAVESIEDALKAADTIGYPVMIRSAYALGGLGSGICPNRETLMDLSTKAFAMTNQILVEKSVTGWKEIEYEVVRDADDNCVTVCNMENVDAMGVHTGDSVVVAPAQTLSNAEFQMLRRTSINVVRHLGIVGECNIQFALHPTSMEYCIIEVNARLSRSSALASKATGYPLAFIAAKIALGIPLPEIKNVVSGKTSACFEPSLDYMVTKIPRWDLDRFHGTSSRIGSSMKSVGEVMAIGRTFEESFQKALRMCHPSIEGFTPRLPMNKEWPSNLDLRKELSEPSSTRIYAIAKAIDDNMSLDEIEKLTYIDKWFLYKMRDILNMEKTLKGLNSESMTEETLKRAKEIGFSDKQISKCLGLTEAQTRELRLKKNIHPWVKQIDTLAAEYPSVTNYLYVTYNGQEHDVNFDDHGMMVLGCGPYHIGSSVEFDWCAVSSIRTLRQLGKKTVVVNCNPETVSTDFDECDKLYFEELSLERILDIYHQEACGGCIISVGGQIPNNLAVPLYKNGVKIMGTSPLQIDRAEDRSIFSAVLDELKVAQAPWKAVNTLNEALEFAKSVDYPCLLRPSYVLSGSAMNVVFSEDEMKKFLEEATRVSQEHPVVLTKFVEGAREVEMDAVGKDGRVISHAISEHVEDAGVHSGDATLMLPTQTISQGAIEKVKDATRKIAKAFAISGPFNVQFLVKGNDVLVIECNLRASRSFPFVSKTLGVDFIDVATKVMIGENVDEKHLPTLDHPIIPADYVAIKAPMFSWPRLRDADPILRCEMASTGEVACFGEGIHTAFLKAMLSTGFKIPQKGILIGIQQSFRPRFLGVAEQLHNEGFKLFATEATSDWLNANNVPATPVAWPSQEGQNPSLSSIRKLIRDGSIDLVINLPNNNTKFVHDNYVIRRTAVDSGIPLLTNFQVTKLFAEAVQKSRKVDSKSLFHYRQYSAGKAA
# [6] = biological target: T6, HeLa cell extract proteins (Homo sapiens, UniProt Q9H1A4)
# T6 construct: endogenous in cells; host or cells: HeLa cell extract
# T6 sequence (Q9H1A4 whole entry): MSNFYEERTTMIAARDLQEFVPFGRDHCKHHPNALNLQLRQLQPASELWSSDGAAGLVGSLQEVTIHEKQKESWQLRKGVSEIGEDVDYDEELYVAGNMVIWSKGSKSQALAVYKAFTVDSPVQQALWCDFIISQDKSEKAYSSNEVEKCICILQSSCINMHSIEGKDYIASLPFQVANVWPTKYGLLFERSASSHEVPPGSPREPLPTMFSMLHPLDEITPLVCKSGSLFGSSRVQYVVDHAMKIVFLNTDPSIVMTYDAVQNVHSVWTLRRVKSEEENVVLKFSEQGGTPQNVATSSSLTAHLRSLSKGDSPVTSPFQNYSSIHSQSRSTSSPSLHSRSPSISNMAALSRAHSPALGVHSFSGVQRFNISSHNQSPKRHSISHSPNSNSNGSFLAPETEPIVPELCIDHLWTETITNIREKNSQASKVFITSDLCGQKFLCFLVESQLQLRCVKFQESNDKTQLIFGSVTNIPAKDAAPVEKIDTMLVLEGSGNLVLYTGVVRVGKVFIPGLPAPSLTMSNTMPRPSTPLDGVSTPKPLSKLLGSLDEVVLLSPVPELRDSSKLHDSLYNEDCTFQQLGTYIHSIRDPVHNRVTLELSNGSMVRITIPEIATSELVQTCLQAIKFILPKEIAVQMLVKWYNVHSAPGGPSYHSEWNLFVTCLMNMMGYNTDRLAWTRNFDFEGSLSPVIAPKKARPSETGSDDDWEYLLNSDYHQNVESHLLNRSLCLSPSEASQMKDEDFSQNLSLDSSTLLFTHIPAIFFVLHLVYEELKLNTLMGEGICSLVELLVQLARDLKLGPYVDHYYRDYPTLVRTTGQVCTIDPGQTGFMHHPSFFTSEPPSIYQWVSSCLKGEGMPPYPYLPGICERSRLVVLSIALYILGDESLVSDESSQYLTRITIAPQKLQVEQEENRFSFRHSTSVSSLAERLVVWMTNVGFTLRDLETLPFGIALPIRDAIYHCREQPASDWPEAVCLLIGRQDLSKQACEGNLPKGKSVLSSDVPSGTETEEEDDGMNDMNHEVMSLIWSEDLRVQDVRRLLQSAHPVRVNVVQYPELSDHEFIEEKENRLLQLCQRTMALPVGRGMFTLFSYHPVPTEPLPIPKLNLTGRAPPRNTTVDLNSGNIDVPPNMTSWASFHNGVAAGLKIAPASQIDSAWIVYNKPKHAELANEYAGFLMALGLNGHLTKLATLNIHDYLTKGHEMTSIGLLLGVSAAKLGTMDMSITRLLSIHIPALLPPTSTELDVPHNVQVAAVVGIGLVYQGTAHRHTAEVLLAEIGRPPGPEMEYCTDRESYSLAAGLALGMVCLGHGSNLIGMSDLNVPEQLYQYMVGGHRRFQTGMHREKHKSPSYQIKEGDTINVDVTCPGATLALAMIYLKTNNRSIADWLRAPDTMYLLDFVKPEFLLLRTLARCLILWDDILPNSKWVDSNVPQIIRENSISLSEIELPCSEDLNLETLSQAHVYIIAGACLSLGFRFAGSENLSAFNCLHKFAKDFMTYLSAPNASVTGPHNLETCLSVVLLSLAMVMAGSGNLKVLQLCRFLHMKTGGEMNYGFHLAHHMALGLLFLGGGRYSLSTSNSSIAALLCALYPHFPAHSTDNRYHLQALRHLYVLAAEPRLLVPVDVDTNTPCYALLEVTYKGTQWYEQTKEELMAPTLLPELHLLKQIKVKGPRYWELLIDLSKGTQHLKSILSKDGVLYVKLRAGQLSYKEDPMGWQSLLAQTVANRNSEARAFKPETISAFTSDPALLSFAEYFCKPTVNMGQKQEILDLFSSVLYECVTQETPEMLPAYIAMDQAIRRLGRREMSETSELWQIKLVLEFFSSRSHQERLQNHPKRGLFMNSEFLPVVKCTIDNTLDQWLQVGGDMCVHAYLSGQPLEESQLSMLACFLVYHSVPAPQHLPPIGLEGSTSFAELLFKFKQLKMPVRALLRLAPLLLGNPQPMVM
# [7] = HeLa, protein ANAPC1 (ANAPHASE-PROMOTING COMPLEX SUBUNIT 1)
Structure (SMILES),"fold changes relative to vehicle control ([1]; protein NCBP1, HeLa)","fold changes relative to vehicle control ([2]; HeLa, captured protein JTV1)","fold changes relative to vehicle control ([3]; HeLa, protein MDN1)","fold changes relative to vehicle control ([4]; HeLa, captured protein ATP5B)","fold changes relative to vehicle control ([5]; HeLa, captured protein CPS1)","fold changes relative to vehicle control [6, 7]","fold changes relative to vehicle control ([1]; captured protein NCBP1, HeLa)","fold changes relative to vehicle control ([2]; captured protein JTV1, HeLa)","fold changes relative to vehicle control ([3]; captured protein MDN1, HeLa)","fold changes relative to vehicle control ([4]; protein ATP5B, HeLa)","fold changes relative to vehicle control ([5]; protein CPS1, HeLa)","fold changes relative to vehicle control ([6]; HeLa, protein ANAPC1)",other results
"Nc1nc2c(c(=O)[nH]1)N(C=O)C(CNc1ccc(C(=O)N[C@@H](CCC(=O)O)C(=O)O)cc1)CN2 (stereo partly drawn) [LEU, leucovorin]",0.81,1.04,0.96,1.09,1.13,1.09,–,–,–,–,–,–,–
NCCCNc1ccc(C(=O)NC(CCC(=O)O)C(=O)O)cc1 (stereo not drawn) [compound 7],0.93,0.85,1,1.04,1.05,1.18,–,–,–,–,–,–,–
CCCCCCOc1cccc(Cc2cnc(N)nc2N)c1 [compound 2],–,–,–,–,–,–,1.03,1.16,0.87,0.83,1.61,1.15,–
CCCCCCOc1ccc(Cc2cnc(N)nc2N)cc1 [compound 1],–,–,–,–,–,–,0.91,1.04,0.94,1.02,1.27,1.05,–
Nc1nc2cccc(-c3ccccc3)c2n1Cc1ccc(Cl)c(Cl)c1 [compound 3],–,–,–,–,–,–,0.96,0.89,1.17,0.96,1.09,1.21,–
NCCOCCOCC(=O)Nc1nc2ncc(CNc3ccc(C(=O)NC(CCC(=O)O)C(=O)O)cc3)nc2c(=O)[nH]1 (stereo not drawn) [compound 6],0.89,0.89,1.12,0.96,1.27,1.1,–,–,–,–,–,–,–
"Nc1nc2[nH]cc(CCc3ccc(C(=O)N[C@@H](CCC(=O)O)C(=O)O)cc3)c2c(=O)[nH]1 [PTX, pemetrexed]",–,–,–,–,–,–,–,–,–,–,–,–,fold changes relative to vehicle control [1]: 0.95; fold changes relative to vehicle control [2]: 0.9; fold changes relative to vehicle control [3]: 0.94; fold changes relative to vehicle control [4]: 1.07; fold changes relative to vehicle control [5]: 1.08; fold changes relative to vehicle control [6]: 1.1
